Measured values taken from the NIST ThermoML archive (doi:10.1016/j.jct.2011.01.014).

Assay: xn = mol fraction of the nth substance listed
Details: 101 kPa, Liquid; for mass density: Vibrating tube method; for speed of sound: sound velocity cell

CC(=O)[O-].[NH3+]CCO [2-hydroxyethylammonium acetate] + CO
Details	mass density, 315.65 K [kg/m3]	mass density, 318.15 K [kg/m3]	mass density, 320.65 K [kg/m3]	mass density, 323.15 K [kg/m3]	speed of sound, 315.65 K [m/s]	speed of sound, 318.15 K [m/s]	speed of sound, 320.65 K [m/s]	speed of sound, 323.15 K [m/s]
x1 = 0.0492	–	823.867	821.611	819.344	1130.1	1122.4	1114.8	1107
x1 = 0.0951	–	866.652	864.531	862.394	1194.7	1187.2	1179.8	1172.3
x1 = 0.1987	–	935.943	934.029	932.105	1313.1	1306	1299.1	1292.1
x1 = 0.29	–	981.405	979.623	977.831	1402.7	1396.1	1389.4	1382.7
x1 = 0.3786	–	1014.8	1013.12	1011.42	1475	1468.6	1462.3	1455.9
x1 = 0.4825	–	1047.21	1045.59	1043.94	1551.4	1545.3	1539.3	1533.2
x1 = 0.6007	1077.07	1075.56	1074.05	1072.54	1621.4	1615.5	1609.6	1603.7
x1 = 0.6711	1091.61	1090.14	1088.66	1087.18	1658.5	1652.7	1646.9	1641.1
x1 = 0.7797	1110.6	1109.14	1107.66	1106.19	1678	1672.5	1667	1661.7
x1 = 0.8297	1118.54	1117.15	1115.77	1114.37	1731.2	1725.7	1720.2	1714.7
x1 = 0.9328	1132.26	1130.88	1129.49	1128.1	1728.4	1723	1717.6	1712.3
x1 = 1	1139.18	1137.82	1136.45	1135.08	1751.9	1746.5	1741.3	1736
